Results reported in US12559504B2, “Benzotriazole derivative” (UBE CORPORATION, priority 2019, dated 2026).

What was measured:
[1] = molecular target: T1, GST fusion human Keap1 (amino acid residue: 325-624) protein (Homo sapiens, UniProt Q14145); assay: Keap1-Nrf2 binding inhibition test (fluorescence polarization); conditions: compound concentration of 100 nM; read-out: inhibition rate
T1 construct: GST fusion human Keap1 (amino acid residue: 325-624) protein; purchased Protein tech Ag0779
Procedure: The inhibitory activity of each test compound on the binding between Nrf2 and Keap1 was measured by the fluorescence polarization method. A solution consisting of 20 mM tris-hydrochloride pH7.5 (NIPPON GENE CO., LTD., REF: 318-90225), 150 mM NaCl [FUJIFILM Wako Pure Chemical. Corporation, REF: 191-01665], 0.05% Tween 20 (BioRAD, REF: 161-0781), and 5 mM DTT (FUJIFILM Wako Pure Chemical Corporation, REF: 049-08972) was used as a buffer solution. To a test compound solution (70 μL) adjusted to each concentration with 10% DMSO (FUJIFILM Wako Pure Chemical Corporation, REF: 043-07216) was added a buffer solution (350 μL) comprising 6 nM FITC-labeled Nrf2 peptide (FITC-Ahx-LDEETGEFL-NH2, Invitrogen) and 0.2 mg/mL of BSA (FUJIFILM Wako Pure Chemical Corporation, REF: 017-22231). Each 120 μL of the resulting mixture was dispensed into a black 96 well plate, and a buffer solution (80 μL) comprising 2.5 nM GST fusion human Keap1 (amino acid residue: 325-624) protein (Protein tech, REF: Ag0779) was added thereto. A Keap1-free buffer solution was added to some wells to prepare negative controls. Meanwhile, compound-free wells were used as positive controls. The plate was incubated at room temperature for 30 minutes, and each fluorescence polarization at excitation wavelength of 482 nm and fluorescence wavelength of 530 nm was measured by using a plate reader Clariostar (BMG Labtech). The fluorescence polarization of the negative control was set to be 100% inhibition, fluorescence polarization of the positive control was set to be 0% inhibition, and the inhibition rate of each test compound at 100 nM was calculated by using the following equation. Inhibition rate (%)=100−((Fluorescence polarization when test compound was added−Fluorescence polarization of negative control)/(Fluorescence polarization of positive control−Fluorescence polarization of negative control))×100

NQO1 [2] = assay: NQO1 enzyme induction test (in vitro) in Hepa1c1c7 cells; type: cell-based; conditions: Mus musculus, Hepa-1c1c7, 48 h, concentration to elevate the NQO1 activity by 1.5 times, about 48 hours, read-out: EC150
Procedure: Each NQO1 assay was carried out by modifying a known method (Anal Biochem 1998; 169: 328-, Methods Enzymol 2004; 382: 243-). Hepa1c1c7 cells (mouse hepatocyte line manufacture by DS Pharma Biomedical Co., Ltd., REF. No. 95090613) were cultured (5% CO2, 37° C.). The cells were cultured in MEMα (manufactured by FUJIFILM Wako Pure Chemical Corporation, REF. 135-15175) medium comprising 10% FBS (manufactured by GIBCO, REF. 10082) and […]/streptomycin/amphotericin B (manufactured by GIBCO, REF. 15240), and dispensed into a 96 well plate (manufactured by Costar, REF. 3610) at 2.0×10^3 cells/well. On the next day, test compound (final concentration of […]: 0.1%) dissolved into DMSO (manufactured by FUJIFILM Wako Pure Chemical Corporation, REF. 043-07216) was added to each well, and the plate was further cultured for about 48 hours.
A cell lysate manufactured by Cell signaling Technology, Inc. (REF. 9803) with the addition of a Protease Inhibitor manufactured by Roche Diagnostics K.K. (REF. 11-873580001) was used. A reaction solution (which is a solution comprising trishydrochloric acid (25 mM), albumin […], Tween-20 (0.01%), glucose-6-phosphate dehydrogenase (2 U/mL), flavin-adenine dinucleotide (5 μM), glucose-6-phosphate (1 μM), nicotinamide adenine dinucleotide phosphate (30 μM), 3-(4,5-dimethyl-2-thiazolyl)-2,5-diphenyltetrazolium bromide (MTT) (0.03%), and menadione (50 μM)), and a stop solution (which is a solution comprising dicumarol (0.3 mM) and potassium dihydrogen phosphate (5 mM), pH 7.4) were prepared. After the medium was removed, cell lysate (50 μL) was added thereto, and the resulting mixture was shaken at room temperature for 20 minutes. The reaction solution (200 μL) was added thereto, and the resulting mixture was left to stand at room temperature for 5 minutes. The stop solution (50 μL) was added thereto, and absorbance at 540 nm (reference 750 nm) was measured.
Cell number was measured by Cell Titer Glo assay (manufactured by Promega Corporation, REF. G9242) by using another plate prepared according to the same conditions as those described above, and correction of absorbance was carried out. The test result was analyzed by Excel, and the EC150 value which is the concentration to elevate the NQO1 activity by 1.5 times was calculated.

NQO1 [3] = assay: NQO1 expression induction test in mouse kidney (single administration); type: in vivo; conditions: Mus musculus, po, 6 h, BALB/c mouse kidney, 6 hours after administration, ratio to control group
Procedure: Each test compound solution for administration was prepared by dissolving or suspending each test compound into a 0.5 w/v % aqueous solution of methylcellulose (0.5% MC) (manufactured by Wako Pure Chemical Industries, Ltd.).
Each prepared test compound was orally administered to a BALB/c mouse (female, provided by Charles River Laboratories Japan, Inc.). Non-treated group was used as a control group. After 6 hours from the administration, each mouse was anesthetized with isoflurane, and euthanized with bloodletting by incising a lower aorta. Immediately, the left kidney was excised, cut into small pieces, and then the cut kidney pieces were transferred to RNA later (Thermo Fisher Scientific).
Then, mRNA was extracted from the collected kidney pieces by using NucleoSpin (registered trademark) RNA Kit (Takara Bio Inc.), each concentration was quantified by FlexStation3 (Molecular Devices), and then the concentration was adjusted to a constant concentration. A reverse transcription synthesis of cDNA was carried out from the mRNA with the constant concentration by using PrimeScript™ RT reagent Kit with gDNA Eraser and PCR Thermal Cycler (Takara Bio Inc.). Then, in addition to the resulting cDNA, SYBR (registered trademark) Premix Ex Taq™ II and NQO1, GAPDH primer (Takara Bio Inc.) were used to carry out Real-time PCR by PCR Thermal Cycler Dice Real time (Takara Bio Inc.), and the NQO1 expression was quantified by using the GAPDH expression as the reference.
In order to evaluate the NQO1 expression induction in each group, the NQO1 expression induction ratio was calculated by using the following equation. (NQO1 expression induction ratio)=(Average NQO1 expression in test compound administered group)[…](Average NQO1 expression in control group)

[4] = Metabolism test using human liver microsome fractions; type: in vitro ADME; conditions: human liver microsomes, test compound 10 μmol/L, NADPH and UDP-glucuronic acid, 37° C.
Procedure: A reaction composition solution (comprising NADPH Regenerating System, Solution A (manufactured by Corning Inc., REF. 451220) (50 μL), NADPH Regenerating System, Solution B (manufactured by Corning Inc., REF. 451200) (10 μL), 250 mM UDP-glucuronic acid (40 μL), UGT Reaction Mix Solution B (manufactured by Corning Inc., REF. 451320) (200 μL), and distilled water (640 μL)) in which human liver microsomes (manufactured by Xenotech, Cat. No. H610) or monkey liver microsomes (manufactured by Xenotech, Cat. No. P2000) (corresponding to 1 mg of protein) were suspended was prepared. After the solution was incubated at 37° C. for 5 minutes, each test compound dissolved into DMSO (manufactured by FUJIFILM Wako Pure Chemical Corporation, Code No. 043-07216) was added to the solution so that the final concentration was set to be 10 μmol/L, and a reaction was initiated. After 0, 5, 10, 15, 20, and 30 minute(s) from the initiation of the metabolism reaction, 100 μL of the reaction solution was taken out of the reaction system, and added to 200 μL of acetonitrile to stop the reaction. After the reaction was completed, the reaction solution was subjected to a work-up such as deproteinization, and then subjected to an UV-HPLC analysis to carry out the following analysis.
The peak area of each test compound was calculated by LabSolution software (Shimadzu Corporation), and the residual ratio (%) at each culture time of test material was calculated by the following equation. Residual ratio (%)=Peak area at each culture time[…]Peak area at 0 (initial time)
Next, the residual amount (nmol/mg/mL) at each culture time of test material was calculated by the following equation. Residual amount (nmol/mg/mL)=Initial concentration of reaction solution (10 nmol/mg/mL)×residual ratio÷100
Finally, a graph in which the reaction time was plotted at horizontal axis and the residual amount was plotted at longitudinal axis was prepared on Excel, and the inclination was calculated as the elimination rate (pmol/min/mg-P) within the time range in which the graph was deemed linear.

T1 sequence (Q14145 325-624): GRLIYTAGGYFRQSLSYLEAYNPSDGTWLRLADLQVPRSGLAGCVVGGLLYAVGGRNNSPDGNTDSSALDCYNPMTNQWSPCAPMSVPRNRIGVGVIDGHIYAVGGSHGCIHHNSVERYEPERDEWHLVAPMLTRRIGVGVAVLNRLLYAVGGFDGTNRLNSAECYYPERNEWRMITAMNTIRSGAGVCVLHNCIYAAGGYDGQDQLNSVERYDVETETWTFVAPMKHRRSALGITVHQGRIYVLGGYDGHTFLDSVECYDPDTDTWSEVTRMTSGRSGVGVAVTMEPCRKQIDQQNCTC

Compound	inhibition at 0.1 µM [1]	EC (1.5-fold NQO1 activity) (NQO1 [2])	fold induction at 30 mg/kg (NQO1 [3])	Human metabolic rate [4]	fold induction at 20 mg/kg (NQO1 [3]; Dose 20 mg/kg)
CC[C@@H]1CN(Cc2cc(C(c3ccc4c(nnn4C)c3C)C(C)(C)C(=O)O)ccc2C)Cc2cc3cc(C)ccc3nc2O1 (stereo partly drawn) [Example 14-(b), 3-(1,4-dimethyl-1H-benzo[d][1,2,3]triazol-5-yl)-3-(3-(((R)-2-ethyl-8-methyl-2,3-dihydro-[1,4]oxazepino[7,6-b]quinolin-4 (5H)-yl)methyl)-4-methylphenyl)-2,2-dimethylpropanoic Acid]	≥ 50%	0.0005 to 0.005 µM	> 6		
CC[C@@H]1CN(Cc2cc(C(c3ccc4c(nnn4C)c3C)C(C)(C)C(=O)O)ccc2C)Cc2c(ccc3cn[nH]c23)O1 (stereo partly drawn) [Example 20-(b), 3-(1,4-dimethyl-1H-benzo[d][1,2, 3]triazol-5-yl)-3-(3-(((R)-7-ethyl-1,7,8,10-tetrahydro-9H-[1,4]oxazepino[7,6-g]indazol-9-yl)methyl)-4-methylphenyl)-2,2-dimethylpropanoic Acid]	≥ 50%	0.0005 to 0.005 µM		D (200≤metabolic rate<250 pmol/min/me protein)	
CC[C@@H]1CN(Cc2cc(C(c3ccc4c(nnn4C)c3C)C(C)(C)C(=O)O)ccc2C)CC2=C(C=CC3=NCCCN32)O1 (stereo partly drawn) [Example 23, 3-(1,4-dimethyl-1H-benzo[d][1,2,3]triazol-5-yl)-3-(3-(((R)-4-ethyl-1,3,4,9,10,11-hexahydro-2H-pyrimido[1′,2′:1,6]pyrido[2,3-f][1,4]oxazepin-2-yl)methyl)-4-methylphenyl)-2,2-dimethylpropanoic Acid]	≥ 50%	0.05 to 0.5 µM	≤ 3		
CC[C@@H]1CN(Cc2cc(C(c3ccc4c(nnn4C)c3C)C(C)(C)C(=O)O)ccc2C)Cc2ccc3ccccc3c2O1 (stereo partly drawn) [Example 24-(b), 3-(1,4-dimethyl-1H-benzo[d][1,2,3]triazol-5-yl)-3-(3-(((R)-2-ethyl-2,3-dihydronaphtho[2,1-f][1,4]oxazepin-4(5H)-yl)methyl)-4-methylphenyl)-2,2-dimethylpropanoic Acid]	≥ 50%	0.005 to 0.05 µM	> 6		
CC[C@@H]1CN(Cc2cc(C(c3ccc4c(nnn4C)c3C)C(C)(C)C(=O)O)ccc2C)Cc2ccc3cccnc3c2O1 (stereo partly drawn) [Example 27-(b), 3-(1,4-dimethyl-1H-benzo[d][1,2,3]triazol-5-yl)-3-(3-(((R)-2-ethyl-2,3-dihydro-[1,4]oxazepino[6,7-h]quinolin-4 (5H)-yl)methyl)-4-methylphenyl)-2,2-dimethylpropanoic Acid]	≥ 50%	0.005 to 0.05 µM	≤ 3		
CC[C@@H]1CN(Cc2cc(C(c3ccc4c(nnn4C)c3C)C(C)(C)C(=O)O)ccc2C)Cc2ccc3ncccc3c2O1 (stereo partly drawn) [Example 28-(b), 3-(1,4-dimethyl-1H-benzo[d][1,2,3]triazol-5-yl)-3-(3-(((R)-2-ethyl-2,3-dihydro-[1,4]oxazepino[7,6-f]quinolin-4(5H)-yl)methyl)-4-methylphenyl)-2,2-dimethylpropanoic Acid]	≥ 50%	0.0005 to 0.005 µM	3 to 6		
CC[C@@H]1CN(Cc2cc(C(c3ccc4c(nnn4C)c3C)C(C)(C)C(=O)O)ccc2C)Cc2cc3[nH]ncc3cc2O1 (stereo partly drawn) [Example 64-(b), 3-(1,4-dimethyl-1H-benzo[d][1,2,3)triazol-5-yl)-3-(3-(((R)-6-ethyl-1,6,7,9-tetrahydro-8H-(1,4]oxazepino[7,6-f]indazol-8-yl)methyl)-4-methylphenyl)-2,2-dimethylpropanoic Acid]	≥ 50%	0.005 to 0.05 µM		B (100≤metabolic rate<150 pmol/min/mg protein)	
CC[C@@H]1CN(Cc2cc(C(c3ccc4c(nnn4C)c3C)C3(C(=O)O)CCCC3)ccc2C)Cc2cc3ncccc3cc2O1 (stereo partly drawn) [Example 83-(b), 1-((1,4-dimethyl-1H-benzo[d][1,2,3]triazol-5-yl) (3-(((R)-2-ethyl-2,3-dihydro-[1,4]oxazepino[7,6-g]quinolin-4 (5H)-yl)methyl)-4-methylphenyl)methyl)cyclopentane-1-carboxylic Acid]		0.005 to 0.05 µM		C (150≤metabolic rate<200 pmol/min/mg protein)	> 6
